Results on 17 compounds are retold here after patent publication US4707487A, “(4-imidazolyl)piperidines, the preparation thereof and their application in therapy” (Institut National de la Sante et de la Recherche Medicale …, priority 1985, dated 1987).

Structures are written as SMILES.

The LD50 is the dose at which mortality reaches 50%. As a reminder, the inhibition is the share of the control response that was lost under treatment.

The target of series [1] is T1, H3 self-receptors of rat brain (Rattus norvegicus, UniProt Q9QYN8). The experiment in a line: cell-based.
Source text: (§1) The method described by Arrang et al., (Nature 1983, 302: 838-837) is used on sections (0.3 mm thick) of cerebral cortex of male Wistar rats (180-200 g) (IFFA-CREDO, France).
The target of series [2] is T1, H3 self-receptors of rat brain. The series can be described thus: Antagonism of histamine stimulation of the H3 receptors controlling the release of (3H)histamine induced by depolarization of sections of rat brain.
Source text: as §1
Series [3] in a line: Acute toxicity: mortality in mice after a single administration of increasing doses. Conditions: mouse, in vivo, after one hour. As to the method: The determination of mortality in mice is observed folowing a single intravenous administration of increasing doses of compounds to be tested.
The L.D.50 for all the compounds studied is […] 100 mg/kg […]. For example, that for the derivative No. 1 is 100 mg/kg after one hour.

Series [4] concerns rate of renewal of histamine in the synaptosomal fraction (P2) of rat cerebral cortex. The experiment in a line: Effects of H3 antagonists on the rate of renewal of cerebral histamine (depletion after synthesis blocking with α-FMH). The class given is in vivo, rat (male). Set-up: Depletion by α-FMH: unit not given beside the values. The protocol: III. EFFECTS OF H3 A[…] THE RATE OF RENEWAL OF CEREBRAL HISTAMINE
Male rats weighing from 80 to 100 g simultaneously receive intraperitoneally α-fluoromethyl histidine and the compound to be tested, each at a dose of 20 mg/kg. One hour later, the animals are sacrificed and the cerebral cortex rapidly removed and homogenized in 10 volumes of 0.32 M sucrose. The homogenate thereby obtained is subjected to two successive centrifugations, the first at 10^4 g.min and second at 2×10^5 g.min to sediment the fraction enriched in synaptosomes (Whittaker, Michaelson and Kirkland, Biochem. J., 1967, 90, 293-305). After resuspension of this fraction in 10 volumes of 20 mM phosphate (K2 /K) buffer, PH 7.8, and treatment with ultrasound, an aliquot portion is frozen for subsequent assay of histidine decarboxylase activity (Baudry, Martres and Schwartz, J. Neurochem., 21, 1301-1309, 1973), and another portion is heated for 10 minutes at 95° C. and then centrifuged at 10^4 g.min. The endogenous histamine is determined in the supernatant by a radioenzymatic assay, which enables the histamine to be converted to tritiated N^w methylhistamine by means of an enzyme purified from rat kidney, histamine N-methyltransferase, and a tritiated methyl radical donor, S-adenosylmethionine. The N^w -methylhistamine thereby formed is selectively extracted in an alkaline medium into chloroform, before measurement of the tritiated product by liquid scintillation (Taylor and Snyder, J. Pharmacol. Exp. Ther., 137, 619-633, 1971).
In the controls, these rates correspond to 15 ng/g/h, compared with approximately 30 ng/g/h after treatment with an H3 -receptor antagonist (Table 3).

Series [5] shares this test system. Described as above. The class given is in vivo, rat (male). Also on record: Depletion by α-FMH: unit not given beside the values. The source holds these as a separate data set.
The mark [6] stands for this setting: read-out: Apparent dissociation constant (Ki) as antagonist of histamine on the H3 self-receptors of rat brain.
The mark [7] stands for this setting: α-FMH 20 mg/kg + test compound 20 mg/kg.
The mark [8] stands for this setting: α-FMH 20 mg/kg + test compound 20 mg/kg, * p < 0.01 with respect to α-FMH alone.
Where [9] appears, read: α-FMH 20 mg/kg + test compound 20 mg/kg, where marked *** p < 0.05 with respect to α-FMH.
The mark [10] stands for this setting: α-FMH 20 mg/kg + test compound 2 mg/kg.
Where [11] appears, read: α-FMH alone 20 mg/kg, i.p., 1 h, rat cerebral cortex.

T1 sequence (Q9QYN8 whole entry): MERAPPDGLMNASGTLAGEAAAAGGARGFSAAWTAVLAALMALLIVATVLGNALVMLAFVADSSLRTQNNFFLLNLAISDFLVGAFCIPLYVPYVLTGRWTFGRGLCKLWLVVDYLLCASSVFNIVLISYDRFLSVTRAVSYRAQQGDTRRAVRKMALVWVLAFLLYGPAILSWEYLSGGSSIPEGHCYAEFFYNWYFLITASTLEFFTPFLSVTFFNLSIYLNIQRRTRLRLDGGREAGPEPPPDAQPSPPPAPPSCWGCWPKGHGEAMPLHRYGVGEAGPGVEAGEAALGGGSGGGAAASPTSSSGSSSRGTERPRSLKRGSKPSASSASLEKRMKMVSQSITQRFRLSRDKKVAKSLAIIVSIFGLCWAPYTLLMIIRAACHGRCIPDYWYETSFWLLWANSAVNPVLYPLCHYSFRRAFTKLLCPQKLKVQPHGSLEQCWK

With `Cc1cccc(NC(=O)N2CCC(c3cn(C(=O)Nc4cccc(C)c4)cn3)CC2)c1` [Example 16], the Ki in series [1] is 84 nM.

For `CC(NC(=N)N1CCC(c2c[nH]cn2)CC1)C1CC1` (stereo not shown) [Example 57], the Ki in series [2] (setting [6]) was determined as 12 nM.

`c1ccc(OCCN2CCC(c3c[nH]cn3)CC2)cc1` [Example 40] gave a Ki in series [2] of 67 nM.

`O=C(c1ccc(N2CCC(c3c[nH]cn3)CC2)cc1)C1CC1` [Example 4] came in with a Ki in series [2] of 37 nM.

`S=C(NC12CC3CC(CC(C3)C1)C2)N1CCC(c2c[nH]cn2)CC1` [Example 7] had a Ki in series [1] of 30 nM.

In turn, `S=C(NC1CCCCC1)N1CCC(c2c[nH]cn2)CC1` [Example 1] had an LD50 at 1 h in series [3] of 100 mg/kg. Also, the “Depletion by α-FMH, change (in brackets)” value in series [4] (setting [7]) is “+74%”; in series [5] (setting [10]), “+96%”. Besides, the “Histamine (level in the synaptosomal fraction P2)” value in series [4] (setting [8]) was found to be 26.4 ± 1.4; in series [5] (test compound alone 20 mg/kg, no α-FMH, ** p < 0.03 with the untreated animals) it was 39.3 ± 2.1; in series [5] (α-FMH 20 mg/kg + test compound 2 mg/kg, * p < 0.01 with respect to α-FMH alone), 23.2 ± 2.7. The “Depletion by α-FMH” value amounted to 25.2 ± 3.3 in series [4] (setting [9]); 12.3 ± 3.7 in series [5] (test compound alone 20 mg/kg, no α-FMH); 28.4 ± 4.0 in series [5] (setting [10]). In series [5] (administered alone at a dose of 20 mg/kg), the “histamine level in the synaptosomal fraction” value is given as “significant fall in the histamine level in the synaptosomal fraction”. Further, the Ki in series [1] stood at 5 nM.

As for `NCCc1c[nH]cn1` [histamine, reference compound], the inhibition at 1 µM in series [2] (read-out: inhibition of (3H)histamine release by exogenous histamine) was approximately 60%.

Turning to `O=C(Nc1cccc(F)c1)N1CCC(c2c[nH]cn2)CC1` [Example 10], in series [1], the Ki was determined as 23 nM.

`CC(NC(=O)N1CCC(c2cn(C(=O)NC(C)c3ccccc3)cn2)CC1)c1ccccc1` (stereo not shown) [Example 20] registered a Ki in series [1] of 22 nM.

Compound `Cc1cccc(NC(=O)N2CCC(c3c[nH]cn3)CC2)c1` [Example 11] gave a Ki in series [1] of 52 nM.

`CC(NC(=O)N1CCC(c2c[nH]cn2)CC1)c1ccccc1` (stereo not shown) [Example 56]: the Ki in series [1] stood at 10 nM.

Consider `O=C(Nc1ccccc1)N1CCC(c2c[nH]cn2)CC1` [Example 9], for which the Ki in series [1] was 170 nM.

`S=C(NC1CCCCC1)N1CCCC(c2c[nH]cn2)C1` (stereo not shown) [Example 58]: the Ki in series [2] (setting [6]) was found to be 40 nM.

In the case of `N[C@@](CF)(Cc1c[nH]cn1)C(=O)O` [α-FMH, α-fluoromethylhistidine, reference compound], in series [4] (setting [11]), the “Depletion by α-FMH” value is reported as 14.5 ± 4.0 and the “Histamine (level in the synaptosomal fraction P2)” value is on record as 37.1 ± 2.7.

With `Cc1[nH]cnc1C1CCN(CCCn2c(=O)[nH]c3ccccc32)CC1` [Example 39], the Ki in series [1] worked out at 500 nM.

With `O=C(NC1CCCCC1)N1CCC(c2c[nH]cn2)CC1` [Example 3], the “Depletion by α-FMH, change (in brackets)” value in series [4] (setting [7]) is given as “+84%”. Also, in series [4] (setting [8]), the “Histamine (level in the synaptosomal fraction P2)” value worked out at 24.9 ± 1.2. For the same compound, the “Depletion by α-FMH” value in series [4] (setting [9]) is 26.7 ± 3.2. The compound also showed a Ki in series [2] of 41 nM.

On to `O=C(NC1CCCCC1)N1CCC(c2cn(C(=O)NC3CCCCC3)cn2)CC1` [Example 2], for which the Ki in series [2] worked out at 26 nM.
